Data on two compounds can be found in patent US9340559B2, “Proteasome inhibitor delanzomib for use in the treatment of lupus” (Cephalon, Inc., priority 2011, dated 2016).

What all share (format): in vivo, mouse
The test system of data set [1] is MRL/lpr mice. Nature of the data set: Lymphomegaly (enlarged lymph nodes), MRL/lpr mice. How it is done:
FIG. 4 depicts lymphomegaly for MRL/lpr mice across treatment groups for the study duration. MRL/lpr mice were treated as outlined in the legend. Lymphomegaly or presence of enlarged lymph nodes were observed weekly and noted.
(§1) Mice are tracked on an individual basis.
(§2) Vehicle alone is provided orally twice weekly (p.o.). Both proteasome inhibitors are suspended in the vehicle solution. […] In addition, urine proteinuria is determined for all animals.
(§3) Vehicle was 3% DMSO/10% Solutol/87% PBS.

Data set [2] relates to MRL/lpr mice. The data set can be described thus: Luminex analysis of serum cytokines (IL-12p40/p70, IL-1β, TNFα), MRL/lpr mice. How it is done:
For the processing of serum samples for cytokine analysis, frozen plasma at −80° C. is thawed on ice, vortexed, and centrifuged for 10 minutes to remove debris and aggregates. A total of 25-50 μL of serum is used for Luminex® assays following the manufacturer's instructions. Ten different mouse cytokines are measured using the mouse cytokine 10-plex bead kit (Invitrogen, Carlsbad, Calif., no. LMC0001). Briefly, filter plates (Millipore, Billerica, Mass., no. MAIPSWU10), are pre-wet with 200 μL of wash solution (kit component) and 25 μL of beads are added per well. Serum samples are diluted and a total volume of 50 μL is added per well (ie, 25 μL of sample serum plus 25 μL of assay diluent as provided by the manufacturer). Plates with beads are incubated for 2 hours at room temperature (RT) on an orbital shaker in the dark. At the end of the incubation, plate(s) are washed twice in kit buffer, secondary biotinylated antibody is added at a 1:10 dilution (100 μL) in biotin diluent provided with the kit. Plates are incubated at RT for 1 hour in the dark then washed twice in kit buffer. Strepavidin in assay diluent is added at 100 μL per well, then incubated for 30 minutes at RT in the dark. The plates are washed 3 times then 100 μL of kit wash solution is added and agitated for 2-3 minutes at RT in the dark. Plates are run immediately following this incubation period on a Luminex xMAP 200 unit with data acquisition and analysis software (Invitrogen, San Diego, Calif., no. MAP0200). All bead washing is performed using a vacuum manifold unit (Pall, Ann Arbor, Mich. no. 5017). For all cytokine Luminex assays, values below the limit of detection set by the lowest point along the standard or set by the manufacturer are considered out of range and are not estimated, but assumed the lowest point along the standard curve for that particular assay.
as §1, §2, §3

The subject of data set [3] is MRL/lpr mice. Nature of the data set: Antinuclear antibody (ANA) ELISA (anti-chromatin, anti-Smith Ag, anti-dsDNA IgG), serum of MRL/lpr mice. An excerpt: For all ANA ELISA assays, values below the limit of detection set by the lowest point along the standard or set by the manufacturer are considered out of range and are not estimated, but assumed the lowest point along the standard curve for that particular assay.

Data set [4] relates to MRL/lpr mice. Nature of the data set: Urinalysis: urine leukocytes (leukouria), Uristix, MRL/lpr mice. Here is the method:
Urine samples are acid precipitated for total protein recovery and analysis. Samples for which enough urine remained are used for Uristix® leukouria analysis. Briefly, a standard protein solution is prepared from normal mouse sera and is used as a standard for mouse urinary protein assay by turbidity. Standard preparation is as follows: 0, 5, 10, 15, 20, 30, 40, and 50 μL of a 4 mg/mL mouse sera standard protein solution as provided in the kit are added in duplicate into two columns. PBS is added to individual wells to adjust the final volume to 50 μL. For urine sample preparation, urine samples are centrifuged at 9880×g for 3 minutes using a tabletop micro-centrifuge. Urine supernatant (1-50 μL) is added in duplicate. PBS is added to adjust the volume to 50 μL total. For the turbidity assay: 25 μL of 0.1 N HCl is added into blank columns and 250 μL of 3% sulfosalicyclic acid into the test columns. The microplate is incubated for 10 minutes at RT and plates are read using an ELISA reader with single beam at 450 nm. For the Uristix® strip assay, strips are laid out and labeled. Twenty microliters of urine are placed onto each test strip square and incubated for at least 30 seconds before the result is recorded. For all total urine analysis plate-based assays, values below the limit of detection set by the lowest point along the standard or set by the manufacturer are considered out of range and are not estimated, but assumed the lowest point along the standard curve for that particular assay.

Data set [5] relates to NZM mice. Nature of the data set: Survival, NZM lupus nephritis model, ip dosing (Example 2).
In data set [6] the test system is NZM mice. The data set can be described thus: Body weight progression, NZM mice (Example 2).
Data set [7] relates to NZM mice. Nature of the data set: Splenomegaly (spleen mass), NZM mice (Example 2).
In data set [8] the test system is NZM mice. Nature of the data set: Collagen type-I cross-linker (CTx) bone resorption biomarker ELISA, serum of NZM mice. Here is the method: Assay is performed as instructed by the manufacturer. Briefly, biotinylated ratlaps antigen is first added in each well of a 96-well ELISA plate. This plate is covered and incubated for 30 minutes at RT. Plate is washed five times with washing solution and incubated with standards or unknown samples in appropriate wells followed by primary Ab. Incubate overnight for 18 hours at 4° C. followed by washing with buffer. Secondary incubation includes a peroxidase conjugated goat anti-rabbit IgG added to each well and incubation at RT for 1 hour. Incubation with chromogenic substrate solution for 15 minutes at RT in the dark develops the plate for analysis. Stopping solution halts the reaction, absorbance is measured within 2 hours at 450 nm.

For the compound `CC(C)C[C@H](NC(=O)[C@H](Cc1ccccc1)NC(=O)c1cnccn1)B(O)O` [bortezomib, reference compound], the “AUC lymphomegaly, percent of non enlarged lymph nodes relative to vehicle” value is recorded as 13% in data set [1] (G4: 0.5 mg/kg iv, 1× wk) and 21% in data set [1] (G5: 0.3 mg/kg iv, 2× wk). The effect on lymphomegaly result in data set [1] (bortezomib treatment groups) is reported as “did not significantly reduce lymphomegaly”. In addition, the “Cytokine AUC serum IL-1β, percent change vs vehicle” value in data set [2] (G4: 0.5 mg/kg iv, 1× wk) was −46%; in data set [2] (G5: 0.3 mg/kg iv, 2× wk) it was −51%. Moreover, the “Cytokine AUC serum IL-12, percent change vs vehicle” value is −54% in data set [2] (G4: 0.5 mg/kg iv, 1× wk) and −54% in data set [2] (G5: 0.3 mg/kg iv, 2× wk). Further, the “Cytokine AUC serum TNFα, percent change vs vehicle” value in data set [2] (G4: 0.5 mg/kg iv, 1× wk) was −64%; in data set [2] (G5: 0.3 mg/kg iv, 2× wk) it was −71%. Also, the “ANA AUC Smith Ag, percent change vs vehicle” value in data set [3] (G4: 0.5 mg/kg iv, 1× wk) is −84%; in data set [3] (G5: 0.3 mg/kg iv, 2× wk), −58%. Further, the “ANA AUC chromatin, percent change vs vehicle” value in data set [3] (G4: 0.5 mg/kg iv, 1× wk) is on record as −82%; in data set [3] (G5: 0.3 mg/kg iv, 2× wk) it was −58%. Further, the “ANA AUC dsDNA, percent change vs vehicle” value in data set [3] (G4: 0.5 mg/kg iv, 1× wk) is recorded as −88%; in data set [3] (G5: 0.3 mg/kg iv, 2× wk), −76%. The “anti-Smith Ag IgG ANA level decrease vs vehicle at EOS” value in data set [3] (Group 4) is given as 74%. In addition, the figures for the “anti-dsDNA IgG ANA decrease vs vehicle” value in data set [3] (Group 4 (iv)) and in data set [3] (Group 5 (iv)) were 82% and 58%, respectively. Besides, the “anti-chromatin IgG level decrease vs vehicle” value in data set [3] (weekly bortezomib dose) came to 64%. In addition, the “Urine AUC leukocytes, percent change vs vehicle” value in data set [4] (G4: 0.5 mg/kg iv, 1× wk) was −78%; in data set [4] (G5: 0.3 mg/kg iv, 2× wk), −70%. Besides, the “EOS survival, percent live mice from original number” value stood at 58% in data set [5] (G3 0.3 mg/kg ip, 1× wk) and 75% in data set [5] (G4 0.3 mg/kg ip, 2× wk). The “mice still alive at day 56” value in data set [5] (both treatment groups of the substance) came to 75%. Further, the “Body mass AUC, percent change vs vehicle” value is listed as “+13%” in data set [6] (G3 0.3 mg/kg ip, 1× wk) and “+11%” in data set [6] (G4 0.3 mg/kg ip, 2× wk). Besides, the “Spleen mass EOS, percent change vs vehicle” value in data set [7] (G3 0.3 mg/kg ip, 1× wk) is listed as “+14%”; in data set [7] (G4 0.3 mg/kg ip, 2× wk), −19%. Further, the “Serum CTx linker AUC, percent change vs vehicle” value in data set [8] (G3 0.3 mg/kg ip, 1× wk) is −27%; in data set [8] (G4 0.3 mg/kg ip, 2× wk) it was −35%. Also, in data set [8] (treatment groups), the “serum CTx levels compared to vehicle” value is on record as “no change in CTx levels”.
On to `C[C@@H]1C[C@H]2[C@@H]3CCC4=CC(=O)C=C[C@]4(C)[C@@]3(F)[C@@H](O)C[C@]2(C)[C@@]1(O)C(=O)CO` [dexamethasone, Dexamethasone, reference compound], for which the “AUC lymphomegaly, percent of non enlarged lymph nodes relative to vehicle” value in data set [1] (G6: 1.5 mg/kg ip, 3× wk) was 22%. In addition, in data set [2] (G6: 1.5 mg/kg ip, 3× wk), the “Cytokine AUC serum IL-1β, percent change vs vehicle” value is −44%; the “Cytokine AUC serum IL-12, percent change vs vehicle” value is given as −74%; the “Cytokine AUC serum TNFα, percent change vs vehicle” value is given as −87%. For the same compound, in data set [3] (G6: 1.5 mg/kg ip, 3× wk), the “ANA AUC Smith Ag, percent change vs vehicle” value is given as −45%; the “ANA AUC chromatin, percent change vs vehicle” value is reported as −47%; the “ANA AUC dsDNA, percent change vs vehicle” value is recorded as −59%. Besides, the “Urine AUC leukocytes, percent change vs vehicle” value in data set [4] (G6: 1.5 mg/kg ip, 3× wk) is listed as −100%. The “EOS survival, percent live mice from original number” value in data set [5] (G5 1.5 mg/kg ip, 3× wk) was determined as 10%. The “Body mass AUC, percent change vs vehicle” value in data set [6] (G5 1.5 mg/kg ip, 3× wk) is −1%. In addition, in data set [7] (G5 1.5 mg/kg ip, 3× wk), the “Spleen mass EOS, percent change vs vehicle” value is −59%. In addition, the “Serum CTx linker AUC, percent change vs vehicle” value in data set [8] (G5 1.5 mg/kg ip, 3× wk) is reported as 21%. In data set [8] (G8 1.5 mg/kg 3× wk ip), the “p, serum concentration of collagen type I cross-linker vs G5 Bortezomib 0.3 mg/kg 1× wk ip” value is given as “p < 0.05” and the “p, serum concentration of collagen type I cross-linker vs G6 Bortezomib 0.3 mg/kg 2× wk ip” value is recorded as “p < 0.01”.
